How the values were obtained:
Type in all cases: cell-based
human TLR7 = molecular target: T1, human TLR7 (Homo sapiens, UniProt Q9NYK1); assay: TLR7 inhibition reporter assay (HEK-Blue cells, SEAP reporter, gardiquimod stimulation); details: HEK-Blue cells overexpressing human TLR7, SEAP reporter, gardiquimod 7.5 μM
T1 construct: host or cells: HEK-Blue cells (HEK293-derived reporter line)
T1 sequence (Q9NYK1 27-1049): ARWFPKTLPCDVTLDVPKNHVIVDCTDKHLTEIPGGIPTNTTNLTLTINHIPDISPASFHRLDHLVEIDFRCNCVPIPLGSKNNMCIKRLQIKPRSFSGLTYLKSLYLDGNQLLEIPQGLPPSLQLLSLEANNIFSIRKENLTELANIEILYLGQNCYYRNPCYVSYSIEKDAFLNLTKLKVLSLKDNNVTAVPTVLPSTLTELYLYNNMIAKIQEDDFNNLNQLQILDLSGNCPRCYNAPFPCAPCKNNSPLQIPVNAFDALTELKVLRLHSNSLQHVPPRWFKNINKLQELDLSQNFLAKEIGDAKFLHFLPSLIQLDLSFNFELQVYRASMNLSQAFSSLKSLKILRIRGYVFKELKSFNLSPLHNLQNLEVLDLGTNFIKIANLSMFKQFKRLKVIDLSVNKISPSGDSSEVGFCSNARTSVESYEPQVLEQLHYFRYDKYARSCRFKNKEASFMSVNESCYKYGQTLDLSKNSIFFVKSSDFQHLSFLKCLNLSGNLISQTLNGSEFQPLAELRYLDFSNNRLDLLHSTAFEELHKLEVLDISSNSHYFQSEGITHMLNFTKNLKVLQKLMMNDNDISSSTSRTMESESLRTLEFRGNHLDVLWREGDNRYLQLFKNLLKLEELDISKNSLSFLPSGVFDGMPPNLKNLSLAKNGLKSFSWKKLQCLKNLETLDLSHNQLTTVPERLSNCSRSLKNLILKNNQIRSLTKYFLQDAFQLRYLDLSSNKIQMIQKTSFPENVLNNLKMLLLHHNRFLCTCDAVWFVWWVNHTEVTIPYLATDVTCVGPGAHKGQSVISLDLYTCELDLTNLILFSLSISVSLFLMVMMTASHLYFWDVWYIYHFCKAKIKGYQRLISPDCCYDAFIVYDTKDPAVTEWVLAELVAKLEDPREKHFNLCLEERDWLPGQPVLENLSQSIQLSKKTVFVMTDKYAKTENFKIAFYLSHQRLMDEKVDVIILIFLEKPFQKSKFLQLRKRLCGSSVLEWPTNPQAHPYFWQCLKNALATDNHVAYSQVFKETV
How it was run: (§1)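 Cells seeded per well (15000 TLR7, 20,000 TLR8, 25,000 TLR9); compound added over 0.05 nM–50 μM for 30 min at room temperature; agonist added (TLR7 gardiquimod 7.5 μM, TLR8 R848 15.9 μM, TLR9 ODN2006 5 nM); 22 h at 37 °C; SEAP measured; percent inhibition calculated.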

human TLR8 = molecular target: T2, human TLR8 (Homo sapiens, UniProt Q9NR97); assay: TLR8 inhibition reporter assay (HEK-Blue cells, SEAP reporter, R848 stimulation); details: HEK-Blue cells overexpressing human TLR8, SEAP reporter, R848 15.9 μM
T2 construct: host or cells: HEK-Blue cells (HEK293-derived reporter line)
T2 sequence (Q9NR97 27-1041): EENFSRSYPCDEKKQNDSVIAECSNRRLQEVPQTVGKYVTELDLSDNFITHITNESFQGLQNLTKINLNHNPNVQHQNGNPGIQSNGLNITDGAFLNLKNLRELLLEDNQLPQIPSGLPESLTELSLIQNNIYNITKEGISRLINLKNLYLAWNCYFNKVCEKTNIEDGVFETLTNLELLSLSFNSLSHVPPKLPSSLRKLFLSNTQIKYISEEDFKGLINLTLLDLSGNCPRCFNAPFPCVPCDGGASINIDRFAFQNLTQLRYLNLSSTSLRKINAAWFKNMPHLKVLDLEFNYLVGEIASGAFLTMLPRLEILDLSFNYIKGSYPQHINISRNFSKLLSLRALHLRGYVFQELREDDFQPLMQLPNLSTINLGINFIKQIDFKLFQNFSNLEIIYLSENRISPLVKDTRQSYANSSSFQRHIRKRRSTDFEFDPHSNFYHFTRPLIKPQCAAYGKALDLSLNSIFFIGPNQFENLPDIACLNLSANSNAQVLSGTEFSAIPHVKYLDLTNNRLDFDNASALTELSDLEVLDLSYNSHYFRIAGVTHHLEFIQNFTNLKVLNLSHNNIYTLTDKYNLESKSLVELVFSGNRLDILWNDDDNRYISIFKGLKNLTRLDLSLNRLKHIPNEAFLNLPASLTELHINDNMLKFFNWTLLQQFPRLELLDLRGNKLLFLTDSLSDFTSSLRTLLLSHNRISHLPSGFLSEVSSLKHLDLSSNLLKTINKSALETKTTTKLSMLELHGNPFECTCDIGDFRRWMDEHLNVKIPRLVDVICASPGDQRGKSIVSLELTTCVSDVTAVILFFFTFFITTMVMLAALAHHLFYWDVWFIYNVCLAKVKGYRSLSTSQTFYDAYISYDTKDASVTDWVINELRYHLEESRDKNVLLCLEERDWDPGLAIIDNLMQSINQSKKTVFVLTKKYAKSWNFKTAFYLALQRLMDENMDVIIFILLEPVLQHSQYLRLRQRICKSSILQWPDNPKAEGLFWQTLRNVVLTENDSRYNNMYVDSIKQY
How it was run: as §1

human TLR9 = molecular target: T3, human TLR9 (Homo sapiens, UniProt Q9NR96); assay: TLR9 inhibition reporter assay (HEK-Blue cells, SEAP reporter, ODN2006 stimulation); details: HEK-Blue cells overexpressing human TLR9, SEAP reporter, ODN2006 5 nM
T3 construct: host or cells: HEK-Blue cells (HEK293-derived reporter line)
T3 sequence (Q9NR96 26-1032): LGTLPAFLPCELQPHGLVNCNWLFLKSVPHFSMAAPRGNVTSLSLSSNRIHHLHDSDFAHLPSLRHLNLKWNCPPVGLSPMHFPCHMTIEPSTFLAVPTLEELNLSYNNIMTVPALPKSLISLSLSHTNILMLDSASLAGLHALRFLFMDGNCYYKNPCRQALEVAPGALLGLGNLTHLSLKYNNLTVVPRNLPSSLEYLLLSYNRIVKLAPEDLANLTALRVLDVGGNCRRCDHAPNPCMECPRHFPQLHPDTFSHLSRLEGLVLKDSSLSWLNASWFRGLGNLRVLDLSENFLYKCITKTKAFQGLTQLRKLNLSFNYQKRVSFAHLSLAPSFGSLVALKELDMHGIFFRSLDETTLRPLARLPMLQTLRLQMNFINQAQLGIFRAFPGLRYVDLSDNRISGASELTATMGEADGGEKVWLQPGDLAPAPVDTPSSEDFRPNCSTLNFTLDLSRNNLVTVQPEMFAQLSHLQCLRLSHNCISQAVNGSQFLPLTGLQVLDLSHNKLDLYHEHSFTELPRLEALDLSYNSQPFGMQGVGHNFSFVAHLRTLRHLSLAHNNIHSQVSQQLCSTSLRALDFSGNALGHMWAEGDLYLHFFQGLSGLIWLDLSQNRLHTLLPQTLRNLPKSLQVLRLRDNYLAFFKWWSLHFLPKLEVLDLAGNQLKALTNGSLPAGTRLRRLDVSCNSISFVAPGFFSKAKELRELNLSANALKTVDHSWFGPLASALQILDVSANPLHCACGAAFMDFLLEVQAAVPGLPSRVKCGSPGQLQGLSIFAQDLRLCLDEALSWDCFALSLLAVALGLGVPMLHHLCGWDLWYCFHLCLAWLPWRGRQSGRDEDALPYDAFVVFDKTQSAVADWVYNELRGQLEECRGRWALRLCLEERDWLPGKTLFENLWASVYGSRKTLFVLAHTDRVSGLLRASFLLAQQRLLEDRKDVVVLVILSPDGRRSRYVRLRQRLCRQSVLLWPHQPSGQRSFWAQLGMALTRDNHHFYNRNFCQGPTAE
How it was run: as §1

IC50 (human TLR7)	IC50 (human TLR8)	IC50 (human TLR9)	SMILES
100 to 1000 nM	100 to 1000 nM	1000 to 50000 nM	CCc1c(-c2cnnc3[nH]ccc23)[nH]c2ccc(C3CCNCC3)cc12 [Example 245, 4-(3-ethyl-5-(piperidin-4-yl)-1H-indol-2-yl)-7H-pyrrolo[2,3-c]pyridazine]
< 100 nM	< 100 nM	1000 to 50000 nM	Cc1c(-c2[nH]c3ccc(C4CCNCC4)cc3c2C(C)C)cn2ccnc2c1Cl [Example 133, 8-chloro-6-(3-isopropyl-5-(piperidin-4-yl)-1H-indol-2-yl)-7-methylimidazo[1,2-a]pyridine]
100 to 1000 nM	> 3130 nM	100 to 1000 nM	CNCC(=O)N1CCC(c2ccc3[nH]c(-c4cnc5ccnn5c4)c(C(C)C)c3c2)CC1 [Example 503, 1-(4-(3-isopropyl-2-(pyrazolo[1,5-a]pyrimidin-6-yl)-1H-indol-5-yl)piperidin-1-yl)-2-(methylamino)ethan-1-one]
100 to 1000 nM	100 to 1000 nM	1000 to 50000 nM	CC(C)c1c(-c2ccc3ncc(C#N)n3c2)[nH]c2ccc(C3CCNCC3)cc12 [Example 119, 6-(3-isopropyl-5-(piperidin-4-yl)-1H-indol-2-yl)imidazo[1,2-a]pyridine-3-carbonitrile]
< 100 nM	< 100 nM	100 to 1000 nM	CC(C)c1c(-c2ccnc3[nH]ncc23)[nH]c2ccc(C3CCN(C4CCNCC4O)CC3)cc12 (stereo not drawn) [Example 804, 4-(3-isopropyl-2-(1H-pyrazolo[3,4-b]pyridin-4-yl)-1H-indol-5-yl)-[1,4′-bipiperidin]-3′-ol]
100 to 1000 nM	100 to 1000 nM	1000 to 50000 nM	Cc1cc(-c2[nH]c3ccc(C4CCNCC4)cc3c2C(C)C)cn2nncc12 [Example 70, 6-(3-isopropyl-5-(piperidin-4-yl)-1H-indol-2-yl)-4-methyl-[1,2,3]triazolo[1,5-a]pyridine]

Second part, the molecule before the results:

SMILES	IC50 (human TLR7)	IC50 (human TLR8)	IC50 (human TLR9)
CC(C)c1c(-c2ccn3cnnc3c2)[nH]c2ccc(C3CCN(C4CCOCC4)CC3)cc12 [Example 697, 7-(3-isopropyl-5-(1-(tetrahydro-2H-pyran-4-yl)piperidin-4-yl)-1H-indol-2-yl)-[1,2,4]triazolo[4,3-a]pyridine]	100 to 1000 nM	100 to 1000 nM	100 to 1000 nM
CCN(CC)C(=O)C1CCCN(CC(=O)N2CCC(c3ccc4[nH]c(-c5ccnc6[nH]ccc56)c(C(C)C)c4c3)CC2)C1 (stereo not drawn) [Example 569, N,N-diethyl-1-(2-(4-(3-isopropyl-2-(1H-pyrrolo[2,3-b]pyridin-4-yl)-1H-indol-5-yl)piperidin-1-yl)-2-oxoethyl)piperidine-3-carboxamide]	< 100 nM	< 100 nM	100 to 1000 nM
CCc1c(-c2ccnc3c(N)noc23)[nH]c2ccc(C3CCNCC3)cc12 [Example 239, 7-(3-ethyl-5-(piperidin-4-yl)-1H-indol-2-yl)isoxazolo[4,5-b]pyridin-3-amine]	1000 to 50000 nM	100 to 1000 nM	100 to 1000 nM
Cc1nn2ccc(-c3[nH]c4ccc(C5CCN(CC(=O)N(C)C)CC5)cc4c3C(C)C)nc2c1F [Example 400, 2-(4-(2-(3-fluoro-2-methylpyrazolo[1,5-a]pyrimidin-5-yl)-3-isopropyl-1H-indol-5-yl)piperidin-1-yl)-N,N-dimethylacetamide]	> 3130 nM	1000 to 50000 nM	1000 to 50000 nM
CCOC(=O)N1CCC(N2CCC(c3ccc4[nH]c(-c5ccnc6[nH]ncc56)c(C(C)C)c4c3)CC2)C(C)C1 (stereo not drawn) [Example 835, ethyl 4-(3-isopropyl-2-(1H-pyrazolo[3,4-b]pyridin-4-yl)-1H-indol-5-yl)-3′-methyl-[1,4′-bipiperidine]-1′-carboxylate]	100 to 1000 nM	100 to 1000 nM	1000 to 50000 nM
CC(CN(C)C)CN1CCC(c2ccc3[nH]c(-c4ccnc5[nH]ncc45)c(C(C)C)c3c2)CC1 (stereo not drawn) [Example 846, 3-(4-(3-isopropyl-2-(1H-pyrazolo[3,4-b]pyridin-4-yl)-1H-indol-5-yl)piperidin-1-yl)-N,N,2-trimethylpropan-1-amine]	< 100 nM	< 100 nM	100 to 1000 nM
Cc1cc2nccn2cc1-c1[nH]c2ccc(C3CCN(CCCN(C)C)CC3)cc2c1C(C)C [Example 856, 3-(4-(3-isopropyl-2-(7-methylimidazo[1,2-a]pyridin-6-yl)-1H-indol-5-yl)piperidin-1-yl)-N,N-dimethylpropan-1-amine]	< 100 nM	< 100 nM	100 to 1000 nM
Cc1cc(-c2[nH]c3ccc(C4CCN(CCCC(F)(F)F)CC4)cc3c2C(C)C)cn2nncc12 [Example 960, 6-(3-isopropyl-5-(1-(4,4,4-trifluorobutyl)piperidin-4-yl)-1H-indol-2-yl)-4-methyl-[1,2,3]triazolo[1,5-a]pyridine]	100 to 1000 nM	100 to 1000 nM	1000 to 50000 nM

Source: patent publication US11739098B2 (BRISTOL-MYERS SQUIBB COMPANY, priority 2017, dated 2023)
